Experimental data published in ChEMBL document CHEMBL5512598, “Current advances and development strategies of orally bioavailable PROTACs” (Eur J Med Chem, 2023).

What was measured:
[1] = molecular target: von Hippel-Lindau disease tumor suppressor/Tyrosine-protein kinase BTK (Homo sapiens, UniProt Q06187+P40337, C481S); assay: PROTAC activity at VHL/BTK C481S mutant in human TMD8 cells assessed as induction of BTK degradation incubated for 24 hrs by immunoblotting analysis; assay type: cell-based
[2] = tested on: von Hippel-Lindau disease tumor suppressor/Tyrosine-protein kinase BTK (Homo sapiens), Q06187+P40337 [C481S]; assay: PROTAC activity at VHL/BTK C481S mutant in human TMD8 cells assessed as maximum degradation of protein relative to control; assay type: cell-based
[3] = Cmax in C57BL/6 mouse at 30 mg/kg, po by LC-MS/MS analysis; assay type: ADME, organism-based; details: in vivo
[4] = Tmax in C57BL/6 mouse at 30 mg/kg, po by LC-MS/MS analysis; assay type: ADME, organism-based; details: in vivo
[5] = Half life in C57BL/6 mouse at 30 mg/kg, po by LC-MS/MS analysis; assay type: ADME, organism-based; details: in vivo
[6] = AUC (0 to t) in C57BL/6 mouse at 30 mg/kg, po by LC-MS/MS analysis; assay type: ADME, organism-based; details: in vivo
[7] = molecular target: von Hippel-Lindau disease tumor suppressor/Polycomb protein EED (Homo sapiens, UniProt O75530+P40337); assay: PROTAC activity at VHL/EED in human DB cells assessed as degradation of EED protein expression incubated for 24 hrs by Western blotting analysis; assay type: cell-based
[8] = molecular target: von Hippel-Lindau disease tumor suppressor/Histone-lysine N-methyltransferase EZH2 (Homo sapiens, UniProt Q15910+P40337); assay: PROTAC activity against VHL/wild type EZH2 in human DB cells assessed as degradation of EZH2 protein expression incubated for 24 hrs by Western blot analysis; assay type: cell-based
[9] = molecular target: von Hippel-Lindau disease tumor suppressor/Histone-lysine N-methyltransferase EZH2 (Homo sapiens, UniProt Q15910+P40337, Y641N); assay: PROTAC activity against VHL/EZH2 Y641N mutant in human DB cells assessed as degradation of EZH2 protein expression incubated for 24 hrs by Western blot analysis; assay type: cell-based
[10] = molecular target: T1, Protein cereblon/Leucine-rich repeat serine/threonine-protein kinase 2 (Homo sapiens, UniProt Q5S007+Q96SW2); assay: PROTAC activity at CRBN/LRRK2 in human MOLT-4 cells assessed as induction of LRRK2 degradation at 1 uM by Western blot analysis relative to control; assay type: cell-based
Target sequence in this assay (Q5S007 whole entry, looked up): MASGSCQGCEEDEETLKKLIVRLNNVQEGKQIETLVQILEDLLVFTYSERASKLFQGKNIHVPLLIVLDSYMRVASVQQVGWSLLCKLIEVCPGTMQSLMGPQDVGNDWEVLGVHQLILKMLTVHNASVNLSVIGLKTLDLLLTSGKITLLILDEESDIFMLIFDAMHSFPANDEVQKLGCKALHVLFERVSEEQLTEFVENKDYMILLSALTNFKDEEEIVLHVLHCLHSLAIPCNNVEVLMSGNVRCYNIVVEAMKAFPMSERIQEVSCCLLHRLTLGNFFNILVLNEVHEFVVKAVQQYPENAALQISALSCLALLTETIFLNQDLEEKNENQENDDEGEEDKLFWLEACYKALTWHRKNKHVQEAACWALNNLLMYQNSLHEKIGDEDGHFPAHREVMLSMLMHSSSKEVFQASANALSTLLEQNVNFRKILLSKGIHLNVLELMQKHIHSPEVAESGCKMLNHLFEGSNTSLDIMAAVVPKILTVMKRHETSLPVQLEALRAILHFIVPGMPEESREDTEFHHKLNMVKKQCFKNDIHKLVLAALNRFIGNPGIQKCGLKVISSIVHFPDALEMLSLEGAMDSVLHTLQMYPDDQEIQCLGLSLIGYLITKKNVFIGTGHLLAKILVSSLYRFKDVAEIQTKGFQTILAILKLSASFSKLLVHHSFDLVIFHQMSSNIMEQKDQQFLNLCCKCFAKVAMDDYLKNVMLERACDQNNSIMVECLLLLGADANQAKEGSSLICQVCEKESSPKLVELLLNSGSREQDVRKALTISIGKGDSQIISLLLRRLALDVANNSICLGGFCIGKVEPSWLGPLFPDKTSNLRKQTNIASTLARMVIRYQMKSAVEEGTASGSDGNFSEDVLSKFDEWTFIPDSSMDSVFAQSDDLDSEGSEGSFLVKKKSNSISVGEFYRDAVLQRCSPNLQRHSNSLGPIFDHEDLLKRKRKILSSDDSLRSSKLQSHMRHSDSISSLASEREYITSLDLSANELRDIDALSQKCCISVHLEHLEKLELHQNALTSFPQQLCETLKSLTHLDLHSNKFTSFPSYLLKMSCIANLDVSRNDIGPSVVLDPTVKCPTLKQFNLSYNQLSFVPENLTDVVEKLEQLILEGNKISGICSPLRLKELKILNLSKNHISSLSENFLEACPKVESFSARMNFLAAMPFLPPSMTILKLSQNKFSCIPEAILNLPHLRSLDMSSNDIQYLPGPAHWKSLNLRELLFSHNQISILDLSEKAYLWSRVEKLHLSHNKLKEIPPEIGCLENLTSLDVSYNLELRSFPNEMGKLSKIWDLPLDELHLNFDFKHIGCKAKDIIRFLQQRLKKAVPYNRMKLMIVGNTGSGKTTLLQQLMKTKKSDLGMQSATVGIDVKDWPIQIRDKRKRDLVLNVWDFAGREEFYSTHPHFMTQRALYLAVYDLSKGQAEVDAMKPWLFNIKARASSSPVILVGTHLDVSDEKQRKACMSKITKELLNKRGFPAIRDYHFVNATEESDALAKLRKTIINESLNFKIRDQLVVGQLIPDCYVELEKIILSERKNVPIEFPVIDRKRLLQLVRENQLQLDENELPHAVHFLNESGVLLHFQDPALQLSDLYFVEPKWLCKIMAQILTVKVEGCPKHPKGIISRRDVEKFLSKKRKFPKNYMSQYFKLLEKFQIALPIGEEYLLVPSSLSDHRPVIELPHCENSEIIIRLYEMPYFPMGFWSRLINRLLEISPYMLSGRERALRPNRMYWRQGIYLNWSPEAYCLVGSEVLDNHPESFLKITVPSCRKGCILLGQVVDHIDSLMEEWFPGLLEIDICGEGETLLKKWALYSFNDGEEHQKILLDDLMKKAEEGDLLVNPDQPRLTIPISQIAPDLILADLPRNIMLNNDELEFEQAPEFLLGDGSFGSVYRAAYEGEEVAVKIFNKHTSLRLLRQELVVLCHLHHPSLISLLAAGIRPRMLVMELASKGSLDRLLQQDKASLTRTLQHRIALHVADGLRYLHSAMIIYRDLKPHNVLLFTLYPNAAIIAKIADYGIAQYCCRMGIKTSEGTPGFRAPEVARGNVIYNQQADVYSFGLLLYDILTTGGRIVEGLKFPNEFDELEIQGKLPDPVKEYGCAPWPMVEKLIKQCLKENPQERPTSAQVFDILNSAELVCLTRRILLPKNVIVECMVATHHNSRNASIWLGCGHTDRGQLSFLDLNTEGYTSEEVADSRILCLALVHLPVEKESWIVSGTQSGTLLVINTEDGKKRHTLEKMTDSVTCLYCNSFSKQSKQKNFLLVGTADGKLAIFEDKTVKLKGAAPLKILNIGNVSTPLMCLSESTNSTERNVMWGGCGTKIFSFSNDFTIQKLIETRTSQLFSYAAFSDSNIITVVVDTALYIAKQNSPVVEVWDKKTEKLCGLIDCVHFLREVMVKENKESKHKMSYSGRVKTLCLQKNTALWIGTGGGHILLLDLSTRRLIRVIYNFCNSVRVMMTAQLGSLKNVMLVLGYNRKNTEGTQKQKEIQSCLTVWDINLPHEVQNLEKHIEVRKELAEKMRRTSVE
Target sequence in this assay (Q96SW2 whole entry, looked up): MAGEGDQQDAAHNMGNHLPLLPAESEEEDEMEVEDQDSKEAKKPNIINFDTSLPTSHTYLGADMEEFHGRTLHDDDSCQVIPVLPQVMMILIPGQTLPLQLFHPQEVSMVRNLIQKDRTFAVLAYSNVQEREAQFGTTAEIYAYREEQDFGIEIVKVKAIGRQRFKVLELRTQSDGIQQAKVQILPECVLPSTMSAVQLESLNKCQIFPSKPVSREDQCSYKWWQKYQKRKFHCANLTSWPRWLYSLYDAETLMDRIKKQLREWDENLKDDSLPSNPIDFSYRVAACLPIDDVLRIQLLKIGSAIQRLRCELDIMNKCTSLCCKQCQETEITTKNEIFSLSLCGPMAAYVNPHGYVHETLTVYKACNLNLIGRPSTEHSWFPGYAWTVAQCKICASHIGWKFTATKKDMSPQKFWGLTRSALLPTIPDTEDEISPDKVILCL

[11] = molecular target: T1, Protein cereblon/Leucine-rich repeat serine/threonine-protein kinase 2; assay: PROTAC activity at CRBN/LRRK2 in human MOLT-4 cells assessed as induction of LRRK2 degradation incubated for 48 hrs by Western blot analysis; assay type: cell-based
Target sequence in this assay (Q5S007 whole entry): as the sequence (Q5S007 whole entry, looked up) above
Target sequence in this assay (Q96SW2 whole entry): as the sequence (Q96SW2 whole entry, looked up) above

[12] = Oral bioavailability in mouse; assay type: ADME, organism-based; details: in vivo
[13] = molecular target: von Hippel-Lindau disease tumor suppressor/Bromodomain-containing protein 9 (Homo sapiens, UniProt Q9H8M2+P40337); assay: PROTAC activity at VHL/BRD9 in human HeLa cells assessed as induction of protein degradation […]; assay type: cell-based
von Hippel-Lindau disease tumor suppressor/Bromodomain-containing protein 9, sequence (Q9H8M2 whole entry): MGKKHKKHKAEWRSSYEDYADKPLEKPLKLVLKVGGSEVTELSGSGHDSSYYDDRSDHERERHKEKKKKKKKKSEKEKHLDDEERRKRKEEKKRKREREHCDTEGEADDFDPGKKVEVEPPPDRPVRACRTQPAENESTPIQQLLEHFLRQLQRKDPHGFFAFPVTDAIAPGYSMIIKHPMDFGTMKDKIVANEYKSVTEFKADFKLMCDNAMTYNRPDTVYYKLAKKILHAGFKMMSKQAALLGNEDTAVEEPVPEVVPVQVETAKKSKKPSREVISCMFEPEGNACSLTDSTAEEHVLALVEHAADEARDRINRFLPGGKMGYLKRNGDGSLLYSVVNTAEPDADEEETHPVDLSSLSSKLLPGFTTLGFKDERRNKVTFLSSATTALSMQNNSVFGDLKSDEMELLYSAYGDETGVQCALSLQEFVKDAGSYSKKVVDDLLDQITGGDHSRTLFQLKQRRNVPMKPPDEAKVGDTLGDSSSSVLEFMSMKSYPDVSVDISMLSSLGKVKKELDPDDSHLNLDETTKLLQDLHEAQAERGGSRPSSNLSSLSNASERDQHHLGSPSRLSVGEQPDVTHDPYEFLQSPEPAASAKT
von Hippel-Lindau disease tumor suppressor/Bromodomain-containing protein 9, sequence (P40337 whole entry): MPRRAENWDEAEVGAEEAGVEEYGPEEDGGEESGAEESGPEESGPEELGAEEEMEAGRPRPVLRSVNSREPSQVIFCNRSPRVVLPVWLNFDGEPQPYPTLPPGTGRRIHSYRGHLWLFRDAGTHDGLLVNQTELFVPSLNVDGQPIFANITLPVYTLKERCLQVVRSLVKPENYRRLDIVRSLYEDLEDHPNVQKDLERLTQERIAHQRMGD

[14] = molecular target: Protein cereblon/Tyrosine-protein kinase BTK (Homo sapiens, UniProt Q06187+Q96SW2, C481S); assay: PROTAC activity at CRBN/BTK C481S mutant in human TMD8 cells assessed as degradation of BTK protein incubated for 4 hrs by HTRF assay; assay type: cell-based
[15] = molecular target: T2, Protein cereblon/Tyrosine-protein kinase BTK (Homo sapiens, UniProt Q06187+Q96SW2); assay: PROTAC activity at CRBN/BTK in human TMD8 cells assessed as induction of BTK degradation incubated for 24 hrs by immunoblotting analysis; assay type: cell-based
Target sequence in this assay (Q06187 whole entry): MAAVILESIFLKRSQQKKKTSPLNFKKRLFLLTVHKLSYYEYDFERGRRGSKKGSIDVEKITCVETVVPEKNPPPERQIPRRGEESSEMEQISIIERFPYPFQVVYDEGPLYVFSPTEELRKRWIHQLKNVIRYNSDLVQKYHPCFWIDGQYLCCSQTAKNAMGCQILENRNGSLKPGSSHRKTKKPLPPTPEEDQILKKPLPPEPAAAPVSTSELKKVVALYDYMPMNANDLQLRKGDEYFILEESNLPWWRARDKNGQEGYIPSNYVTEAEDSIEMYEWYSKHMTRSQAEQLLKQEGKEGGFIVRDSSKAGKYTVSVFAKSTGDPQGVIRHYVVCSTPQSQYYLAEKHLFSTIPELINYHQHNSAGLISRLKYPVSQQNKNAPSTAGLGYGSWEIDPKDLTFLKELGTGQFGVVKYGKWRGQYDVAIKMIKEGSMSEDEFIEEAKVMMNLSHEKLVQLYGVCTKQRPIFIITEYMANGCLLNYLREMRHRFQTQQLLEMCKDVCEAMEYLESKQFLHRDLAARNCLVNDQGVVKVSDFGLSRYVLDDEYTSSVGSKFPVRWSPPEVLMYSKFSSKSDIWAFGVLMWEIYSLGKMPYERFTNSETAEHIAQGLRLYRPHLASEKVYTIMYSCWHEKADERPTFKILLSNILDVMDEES
Target sequence in this assay (Q96SW2 whole entry): as the sequence (Q96SW2 whole entry, looked up) above

[16] = molecular target: T2, Protein cereblon/Tyrosine-protein kinase BTK; assay: PROTAC activity at CRBN/BTK in human TMD8 cells assessed as maximal degradation of BTK protein incubated for 24 hrs by immunoblotting analysis relative to control; assay type: cell-based
[17] = Cmax in mouse at 10 mg/kg, po measured upto 24 hrs by LC-MS/MS analysis; assay type: ADME, organism-based; details: in vivo
[18] = Oral bioavailability in Sprague-Dawley rat at 5 mg/kg incubated for 24 hrs by LC-MS/MS analysis; assay type: ADME, organism-based; details: in vivo
[19] = Oral bioavailability in ICR mouse at 5 mg/kg by LC-MS/SM analysis; assay type: ADME, organism-based; details: in vivo
[20] = Clearance in mouse at 10 mg/kg, po measured upto 24 hrs by LC-MS/MS analysis; assay type: ADME, organism-based; details: in vivo
[21] = Clearance in Sprague-Dawley rat at 0.5 mg/kg, iv; assay type: ADME, organism-based; details: in vivo
[22] = molecular target: Voltage-gated inwardly rectifying potassium channel KCNH2 (Homo sapiens, UniProt Q12809); assay: Inhibition of hERG (unknown origin); assay type: toxicity
Cytochrome P450 3A4 = Cytochrome P450 3A4 (Homo sapiens, UniProt P08684); assay: Inhibition of CYP3A4 (unknown origin); assay type: ADME
Cytochrome P450 3A4, sequence (P08684 whole entry): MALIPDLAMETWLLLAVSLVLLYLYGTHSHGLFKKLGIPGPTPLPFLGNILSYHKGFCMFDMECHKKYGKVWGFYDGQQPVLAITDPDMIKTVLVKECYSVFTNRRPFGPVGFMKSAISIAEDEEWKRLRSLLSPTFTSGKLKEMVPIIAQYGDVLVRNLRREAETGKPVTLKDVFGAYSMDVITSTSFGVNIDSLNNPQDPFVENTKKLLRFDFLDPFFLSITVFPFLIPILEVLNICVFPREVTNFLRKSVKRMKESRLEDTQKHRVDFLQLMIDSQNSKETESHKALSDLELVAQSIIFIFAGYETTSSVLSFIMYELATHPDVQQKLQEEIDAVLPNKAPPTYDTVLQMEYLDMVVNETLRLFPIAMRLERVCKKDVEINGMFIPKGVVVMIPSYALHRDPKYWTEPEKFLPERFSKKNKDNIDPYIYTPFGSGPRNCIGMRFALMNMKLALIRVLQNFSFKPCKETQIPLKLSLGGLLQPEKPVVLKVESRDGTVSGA

Cytochrome P450 2C19 = Cytochrome P450 2C19 (Homo sapiens, UniProt P33261); assay: Inhibition of CYP2C19 (unknown origin); assay type: ADME
Cytochrome P450 2D6 = Cytochrome P450 2D6 (Homo sapiens, UniProt P10635); assay: Inhibition of CYP2D6 (unknown origin); assay type: ADME
[23] = Oral bioavailability in C57BL/6 mouse at 30 mg/kg by LC-MS/MS analysis; assay type: ADME, organism-based; details: in vivo

CN1CCN([C@@H]2CCCN(c3cnc(C(N)=O)c(Nc4ccc(C5CCN(C(=O)CCOCCNc6cccc7c6C(=O)N(C6CCC(=O)NC6=O)C7=O)CC5)cc4)n3)C2)C1=O (stereo partly drawn)
DC50 [1]: 7 nM | Emax [2]: 86%

Cc1ncsc1-c1ccc(CNC(=O)[C@@H]2C[C@@H](O)CN2C(=O)[C@@H](NC(=O)CCCCCCCCCCNC(=O)OC2C[C@@H](C)C=C3C=C[C@H](C)[C@H](CC[C@@H]4C[C@H](O)CC(=O)O4)[C@H]32)C(C)(C)C)cc1 (stereo partly drawn)
Cmax [3]: 470 ng/mL | Tmax [4]: 8 h | half-life [5]: 5.1 h | AUC(0-t) [6]: 5000 ng·h/mL

Cc1ncsc1-c1ccc(CNC(=O)[C@@H]2C[C@@H](O)CN2C(=O)[C@@H](NC(=O)[C@H]2C[C@@H](NC(=O)c3ccc(-c4cnc(NCc5ccco5)n5cnnc45)cc3)C2)C(C)(C)C)cc1
DC50 [7]: 111 nM | DC50 [8]: 275 nM | DC50 [9]: 275 nM

Cc1ncsc1-c1ccc(CNC(=O)[C@@H]2C[C@@H](O)CN2C(=O)[C@@H](NC(=O)CCCCCCCCCCNC(=O)OC2C[C@@H](C)C=C3C=C[C@H](C)[C@H](CC[C@@H](O)C[C@H](O)CC(=O)O)[C@H]32)C(C)(C)C)cc1 (stereo partly drawn)
Emax [10]: 65% | DC50 [11]: 120 nM

C[C@@H]1C=C2C=C[C@@H](C)[C@@H](CC[C@@H]3C[C@@H](O)CC(=O)O3)[C@@H]2[C@H](OC(=O)NCCOCCOCCNc2cccc3c2C(=O)N(C2CCC(=O)NC2=O)C3=O)C1 (stereo partly drawn)
Emax [10]: 44%

COc1cc(-c2cn(C)c(=O)c3[nH]ncc23)cc(OC)c1CN1CCN(C(=O)CN2CCC(c3ccc(NC4CCC(=O)NC4=O)cc3)CC2)CC1 (stereo not drawn)
bioavailability [12]: < 1% | DC50 [13]: 5 nM

NC(=O)c1ncc(N2CCCCC2)nc1Nc1ccc(C2CCN(C[C@@H]3CCN(c4ccc5c(c4)C(=O)N(C4CCC(=O)NC4=O)C5=O)C3)CC2)cc1 (stereo partly drawn)
DC50 [14]: 13 nM | bioavailability [12]: 8% | DC50 [15]: 4.5 nM | Emax [16]: 86% | Cmax [17]: 1300 nM

COc1cc(-c2cn(C)c(=O)c3cnccc23)cc(Cl)c1CN1CCC(C2CCN(C(=O)c3ccc(NC4CCC(=O)NC4=O)cc3C(F)(F)F)CC2)CC1 (stereo not drawn)
DC50 [13]: 11 nM | bioavailability [18]: 48% | bioavailability [19]: 100% | CL/F [20]: 30 mL/min/kg | clearance [21]: 74 mL/min/kg | IC50 [22]: 7500 nM | IC50 (Cytochrome P450 3A4): 5600 nM | IC50 (Cytochrome P450 2C19): 1900 nM | IC50 (Cytochrome P450 2D6): > 30000 nM

CNc1nc(Nc2ccc(C(=O)N3CCN(C[C@H]4CC[C@H](CSC(C)(C)[C@H](NC(=O)C5(F)CC5)C(=O)N5C[C@H](O)C[C@H]5C(=O)NCc5ccc(-c6scnc6C)cc5)CC4)CC3)cc2OC)ncc1Cl
Cmax [3]: 3620 ng/mL | Tmax [4]: 2 h | half-life [5]: 21.9 h | AUC(0-t) [6]: 21300 ng·h/mL | bioavailability [23]: 15%
